Data set [1] relates to Mycobacterium tuberculosis H37Rv. As to the kind of experiment: Anti-tubercular activity, colorimetric Resazurin Microplate Assay (REMA), H37Rv. Type of data set: cell-based. The following applies: 192 h, read-out: Anti-tubercular activity against Mycobacterium tuberculosis H37Rv (MIC). In general terms: The colour change of resazurin is a common sign of viable cells or microbes.

≈ marks a conversion by molar mass, not a printed value. Some results are limits rather than exact numbers.

One may read the MIC as the least concentration at which growth counts as inhibited. As usually defined, the melting point is the temperature, or range, at which the solid turns liquid.

In turn, `CC1=C(C(=O)N2CCCCC2)C(c2ccccc2)NC(=S)N1` (stereo not drawn) [DHPM-KN1, (6-Methyl-4-phenyl-2-thioxo-1,2,3,4-tetrahydropyrimidin-5-yl)(piperidin-1-yl)methanone] returned a melting point of 240 °C. For the same compound, the minimal inhibitory concentration (MIC) in data set [1] worked out at 16 µg/mL (≈ 50.7 µM). For the compound `CC1=C(C(=O)N2CCCCC2)C(c2ccc(F)cc2)NC(=S)N1` (stereo not drawn) [DHPM-KN2, (4-(4-Fluorophenyl)-6-methyl-2-thioxo-1,2,3,4-tetrahydropyrimidin-5-yl)(piperidin-1-yl)methanone], the melting point worked out at 234 °C. On to `COC(=O)C1=C(C)NC(=S)NC1c1ccc(C(F)(F)F)cc1` (stereo not drawn) [DHPM-KN3, Methyl 6-methyl-2-thioxo-4-(4-(trifluoromethyl)phenyl)-1,2,3,4-tetrahydropyrimidine-5-carboxylate], for which the melting point was 190 °C.

As for `COC(=O)C1=C(C)NC(=O)NC1c1ccc([N+](=O)[O-])cc1[N+](=O)[O-]` (stereo not drawn) [DHPM-KN4, Methyl 4-(2,4-dinitrophenyl)-6-methyl-2-oxo-1,2,3,4-tetrahydropyrimidine-5-carboxylate], the melting point turned out to be 210 °C. Besides, the minimal inhibitory concentration (MIC) in data set [1] was 16 µg/mL (≈ 47.6 µM). Consider `CC1=C(C(=O)N2CCCCC2)C(c2ccc([N+](=O)[O-])cc2)NC(=S)N1` (stereo not drawn) [DHPM-KN5, (6-Methyl-4-(4-nitrophenyl)-2-thioxo-1,2,3,4-tetrahydropyrimidin-5-yl)(piperidin-1-yl)methanone], for which the melting point was 230 °C. Besides, the minimal inhibitory concentration (MIC) in data set [1] was found to be 8 µg/mL (≈ 22.2 µM). For `CC1=C(C(=O)N2CCCCC2)C(c2ccc(Br)cc2)NC(=S)N1` (stereo not drawn) [DHPM-KN6, (4-(4-Bromophenyl)-6-methyl-2-thioxo-1,2,3,4-tetrahydropyrimidin-5-yl)(piperidin-1-yl)methanone] the same measures were 258 °C and more than 64 µg/mL. `COc1ccc(C2NC(=S)NC(C)=C2C(=O)N2CCCCC2)cc1` (stereo not drawn) [DHPM-KN7, (4-(4-Methoxyphenyl)-6-methyl-2-thioxo-1,2,3,4-tetrahydropyrimidin-5-yl)(piperidin-1-yl)methanone] had a melting point of 124 °C. Further, the MIC in data set [1] was more than 64 µg/mL.

Take `CC1=C(C(=O)N2CCCCC2)C(c2ccccc2C)NC(=S)N1` (stereo not drawn) [DHPM-KN8, (6-Methyl-2-thioxo-4-(o-tolyl)-1,2,3,4-tetrahydropyrimidin-5-yl)(piperidin-1-yl)methanone]: the melting point was 260 °C. The MIC in data set [1] turned out to be 128 µg/mL (≈ 389 µM). On to `CC1=C(C(=O)N2CCCCC2)C(c2ccc(Cl)cc2)NC(=S)N1` (stereo not drawn) [DHPM-KN9, (4-(4-Chlorophenyl)-6-methyl-2-thioxo-1,2,3,4-tetrahydropyrimidin-5-yl)(piperidin-1-yl)methanone], for which the melting point came to 218 °C.

On to `CC1=C(C(=O)N2CCCCC2)C(c2ccc(C(F)(F)F)cc2)NC(=S)N1` (stereo not drawn) [DHPM-KN10, (6-Methyl-2-thioxo-4-(4-(trifluoromethyl)phenyl)-1,2,3,4-tetrahydropyrimidin-5-yl)(piperidin-1-yl)methanone], for which the melting point came to 172 °C. Further, the MIC in data set [1] worked out at 128 µg/mL (≈ 334 µM). Consider `CC1=C(C(=O)N2CCCCC2)C(c2ccc(O)cc2)NC(=S)N1` (stereo not drawn) [DHPM-KN11, (4-(4-Hydroxyphenyl)-6-methyl-2-thioxo-1,2,3,4-tetrahydropyrimidin-5-yl)(piperidin-1-yl)methanone], for which the melting point turned out to be 274 °C. In turn, `CC1=C(C(=O)N2CCCCC2)C(c2ccccc2O)NC(=S)N1` (stereo not drawn) [DHPM-KN12, (4-(2-Hydroxyphenyl)-6-methyl-2-thioxo-1,2,3,4-tetrahydropyrimidin-5-yl)(piperidin-1-yl)methanone] showed a melting point of 223 °C. On the same count and under the same terms, in the case of `CC1=C(C(=O)N2CCCCC2)C(c2ccc(O)c(O)c2)NC(=S)N1` (stereo not drawn) [DHPM-KN13, (4-(3,4-Dihydroxyphenyl)-6-methyl-2-thioxo-1,2,3,4-tetrahydropyrimidin-5-yl)(piperidin-1-yl)methanone] it was 173 °C; in that of `CC1=C(C(=O)N2CCCC2)C(c2ccccc2)NC(=S)N1` (stereo not drawn) [DHPM-KN14, (6-Methyl-4-phenyl-2-thioxo-1,2,3,4-tetrahydropyrimidin-5-yl)(pyrrolidin-1-yl)methanone], 198 °C.

The values above are taken from patent US11912683B1 (priority 2023, dated 2024).
